How the values were obtained:
[1] = biological target: Serine/threonine-protein kinase pim-1 (Homo sapiens, UniProt P11309); experiment: Inhibition of Pim-1 (unknown origin) measured by ADP-Glo kinase assay
[2] = tested on: MDA-MB-231; experiment: Antiproliferative activity against human […] cells measured by cell viability assay; format: functional, cell-based

Sequence of Serine/threonine-protein kinase pim-1 (P11309 whole entry): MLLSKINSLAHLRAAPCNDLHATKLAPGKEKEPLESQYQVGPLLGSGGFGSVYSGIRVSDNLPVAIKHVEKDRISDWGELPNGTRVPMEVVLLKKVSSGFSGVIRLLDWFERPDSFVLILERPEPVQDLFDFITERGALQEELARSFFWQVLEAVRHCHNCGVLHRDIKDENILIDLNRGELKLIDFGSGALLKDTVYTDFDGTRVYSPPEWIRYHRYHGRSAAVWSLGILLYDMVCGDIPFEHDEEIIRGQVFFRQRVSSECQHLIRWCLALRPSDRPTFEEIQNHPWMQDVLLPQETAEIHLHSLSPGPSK

SMILES	IC50 [1] [µM]	IC50 [2] [µM]
c1cc2c(cn1)Oc1ccc3cc1N2CCCCCNCCOCCO3	0.14	25.9
c1cc2c(cn1)Oc1ccc3cc1N2CCOCCNCCCCCO3	2.19	35.4
c1cc2c(cn1)Oc1ccc3cc1N2CCOCCNCCCO3	0.881	30
c1cc2c(cn1)Oc1ccc3cc1N2CCCNCCOCCO3	0.0573	19.5

The remaining lines, values ahead:

IC50 [1] [µM]	IC50 [2] [µM]	SMILES
0.467	44	c1cc2c(cn1)Oc1ccc3cc1N2CCOCCNCCCCO3
0.27	16.3	c1cc2c(cn1)Oc1ccc3cc1N2CCCCNCCCCCO3
0.434	19	c1cc2c(cn1)Oc1ccc3cc1N2CCCCNCCCCO3
0.176	12.3	c1cc2c(cn1)Oc1ccc3cc1N2CCCCNCCOCCO3
0.0351	8.15	c1cc2c(cn1)Oc1ccc3cc1N2CCCCCNCCCCO3

Reference: ChEMBL document CHEMBL5113466, “Design, synthesis, and bioactivity evaluation of macrocyclic benzo[b]pyrido[4,3-e][1,4]oxazine derivatives as novel Pim-1 kinase inhibitors” (Bioorg Med Chem Lett, 2022)
